One may read the IC50 as the midpoint of a concentration-inhibition curve.

Assay [1] addresses human recombinant Aurora B (Homo sapiens (Human), UniProt Q96GD4). Nature of the assay: Aurora B Kinase Biochemical Assay (ADP-Glo). The note with it: ratio of Aurora B IC50 to PLK4 IC50 (selectivity). The method in brief: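 Recombinant human Aurora B (20 nM in pH 7.5 HEPES buffer with MgCl2, EGTA, DTT, Brij-35, BSA) preincubated with compound 15 min at RT. ADP formed quantified by ADP-Glo luminescence after ATP depletion (40 min) and detection (30 min). IC50 from four-parameter non-linear regression.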
(In general: In ADP-Glo the light output rises with the ADP produced.)

The target in a further assay is human recombinant PLK4 (Homo sapiens (Human), UniProt O00444). The experiment in a line: PLK4 Biochemical Assay (ADP-Glo). The note with it: 0.5 nM PLK4, 8.0 µM ATP, 4.7 µM MBP, 6 hours at RT. The method in brief:
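Recombinant human PLK4 (added at 1.0 nM) was preincubated 15 min at RT with compound in 50 mM HEPES pH 7.5, 10 mM MgCl2, 1 mM EGTA, 1 mM DTT, 0.01% Brij-35, 0.01% BSA. ADP formed was detected by ADP-Glo luminescence (40 min ATP depletion, 30 min detection). IC50 came from a four-parameter fit.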

The test system of another assay is CHP-134 cells. The experiment in a line: CHP134 CellTiter-Glo (CTG) Assay. Type of assay: cell-based. The conditions noted are these: Homo sapiens, CHP-134, 120 h, 5 days, viable cells by CellTiter-Glo. The method in brief:
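CHP-134 cells seeded at 200 cells/well for 16 h, then given nine 1:3 serial dilutions in quadruplicate at 37° C, 5% CO2. Viable cells measured by CellTiter-Glo luminescence after 5 days; IC50 calculated from curves.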
(In general: In ATP-based viability assays light output follows the ATP content of the culture.)

In assay [2] the target is human recombinant Aurora A (Homo sapiens (Human), UniProt O14965). The experiment in a line: Aurora A Kinase Biochemical Assay (ADP-Glo). The conditions noted are these: ratio of Aurora A IC50 to PLK4 IC50 (selectivity).
Sequence of human recombinant Aurora A (O14965 whole entry): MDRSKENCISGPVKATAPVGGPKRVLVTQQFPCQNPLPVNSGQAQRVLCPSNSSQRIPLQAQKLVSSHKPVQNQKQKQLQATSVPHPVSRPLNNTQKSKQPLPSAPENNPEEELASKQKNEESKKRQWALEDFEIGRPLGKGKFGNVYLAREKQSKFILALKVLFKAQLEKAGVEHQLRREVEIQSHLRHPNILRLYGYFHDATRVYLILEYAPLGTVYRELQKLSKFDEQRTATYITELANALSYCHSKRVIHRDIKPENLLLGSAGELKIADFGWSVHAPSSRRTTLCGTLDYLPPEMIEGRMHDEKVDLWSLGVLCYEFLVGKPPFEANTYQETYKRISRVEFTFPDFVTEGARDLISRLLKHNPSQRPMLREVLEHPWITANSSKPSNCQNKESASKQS

The structures appear in SMILES notation.

Sequence of human recombinant PLK4 (O00444 whole entry): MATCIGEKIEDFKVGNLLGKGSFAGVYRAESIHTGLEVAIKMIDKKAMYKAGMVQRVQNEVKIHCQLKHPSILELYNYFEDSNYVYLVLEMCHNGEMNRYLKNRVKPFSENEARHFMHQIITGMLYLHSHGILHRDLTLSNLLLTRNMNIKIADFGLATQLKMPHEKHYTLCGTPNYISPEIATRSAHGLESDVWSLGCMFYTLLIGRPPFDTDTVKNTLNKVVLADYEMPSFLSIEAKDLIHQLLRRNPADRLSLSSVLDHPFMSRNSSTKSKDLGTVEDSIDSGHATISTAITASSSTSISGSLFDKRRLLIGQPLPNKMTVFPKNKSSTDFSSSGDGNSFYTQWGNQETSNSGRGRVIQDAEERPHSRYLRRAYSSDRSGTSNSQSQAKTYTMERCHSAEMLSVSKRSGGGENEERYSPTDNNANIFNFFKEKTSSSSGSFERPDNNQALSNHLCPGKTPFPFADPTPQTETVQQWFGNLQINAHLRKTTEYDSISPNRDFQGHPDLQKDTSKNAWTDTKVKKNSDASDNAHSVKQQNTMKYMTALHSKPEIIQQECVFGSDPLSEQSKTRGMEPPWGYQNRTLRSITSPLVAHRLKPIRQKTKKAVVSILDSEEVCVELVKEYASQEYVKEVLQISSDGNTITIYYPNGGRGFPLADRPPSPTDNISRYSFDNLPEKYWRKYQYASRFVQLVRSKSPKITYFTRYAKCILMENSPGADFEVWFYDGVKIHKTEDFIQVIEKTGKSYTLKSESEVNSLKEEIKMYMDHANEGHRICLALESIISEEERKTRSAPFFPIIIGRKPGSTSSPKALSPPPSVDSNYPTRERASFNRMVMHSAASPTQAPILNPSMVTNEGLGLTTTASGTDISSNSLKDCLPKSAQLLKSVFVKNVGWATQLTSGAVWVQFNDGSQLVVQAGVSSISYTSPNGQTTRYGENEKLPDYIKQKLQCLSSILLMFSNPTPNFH
Sequence of human recombinant Aurora B (Q96GD4 whole entry): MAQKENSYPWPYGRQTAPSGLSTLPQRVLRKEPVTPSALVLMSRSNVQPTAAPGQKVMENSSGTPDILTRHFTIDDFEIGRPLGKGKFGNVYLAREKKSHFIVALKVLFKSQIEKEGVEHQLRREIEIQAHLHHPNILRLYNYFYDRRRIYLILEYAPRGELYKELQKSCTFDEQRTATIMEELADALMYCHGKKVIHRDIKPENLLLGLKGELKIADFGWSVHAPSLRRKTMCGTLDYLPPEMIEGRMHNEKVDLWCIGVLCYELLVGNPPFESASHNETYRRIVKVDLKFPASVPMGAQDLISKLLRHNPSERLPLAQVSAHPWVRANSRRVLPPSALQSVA

As for `COc1ccc2c(c1)[C@]1(C[C@H]1c1ccc3c(Nc4ncnc(N5CC6(COC6)C5)c4Cl)n[nH]c3c1)C(=O)N2` [Example 132, (1R,2S)-2-(3-{[5-chloro-6-(2-oxa-6-azaspiro[3.3]heptan-6-yl)pyrimidin-4-yl]amino}-1H-indazol-6-yl)-5′-methoxyspiro[cyclopropane-1,3′-indol]-2′(1′H)-one], the “[Aurora B IC50 (nM)]/[PLK4 IC50 (nM)]” value in assay [1] is reported as 249.5114. Also, the IC50 on human recombinant PLK4 worked out at 2.15 nM; in the assay on CHP-134 cells it was 618 nM. Besides, the “[Aurora A IC50 (nM)]/[PLK4 IC50 (nM)]” value in assay [2] was determined as 5290.8329.

For the molecule `COc1cnc(C)nc1Nc1n[nH]c2cc([C@@H]3C[C@@]34C(=O)Nc3ccc(F)cc34)ccc12` [Example 133, (1R,2S)-5′-fluoro-2-{3-[(5-methoxy-2-methylpyrimidin-4-yl)amino]-1H-indazol-6-yl}spiro[cyclopropane-1,3′-indol]-2′(1′H)-one], the “[Aurora B IC50 (nM)]/[PLK4 IC50 (nM)]” value in assay [1] is 45.1453. Besides, the IC50 was found to be 8.32 nM at human recombinant PLK4 and 193 nM with CHP-134 cells. In addition, the “[Aurora A IC50 (nM)]/[PLK4 IC50 (nM)]” value in assay [2] stood at 43.3910.

Regarding `CCOc1cnc(C)nc1Nc1n[nH]c2cc([C@@H]3C[C@@]34C(=O)Nc3ccc(OC)cc34)ccc12` [Example 134, (1R,2S)-2-{3-[(5-ethoxy-2-methylpyrimidin-4-yl)amino]-1-indazol-6-yl}-5′-methoxyspiro[cyclopropane-1,3′-indol]-2′(1′H)-one], in assay [1], the “[Aurora B IC50 (nM)]/[PLK4 IC50 (nM)]” value is reported as 969.2737. The IC50 on human recombinant PLK4 came out at 1.79 nM; in the assay on CHP-134 cells it was 782 nM. Further, the “[Aurora A IC50 (nM)]/[PLK4 IC50 (nM)]” value in assay [2] is 8849.1620.

Take `COc1ccc2c(c1)[C@]1(C[C@H]1c1ccc3c(Nc4nc(C)ncc4C4CC4)n[nH]c3c1)C(=O)N2` [Example 140, (1R,2S)-2-{3-[(5-cyclopropyl-2-methylpyrimidin-4-yl)amino]-1H-indazol-6-yl}-5′-methoxyspiro[cyclopropane-1,3′-indol]-2′(1′H)-one]: in assay [1], the “[Aurora B IC50 (nM)]/[PLK4 IC50 (nM)]” value was found to be 537. Besides, the IC50 on human recombinant PLK4 came to 16.6 nM; in the assay with CHP-134 cells, 7760 nM. For the same molecule, the “[Aurora A IC50 (nM)]/[PLK4 IC50 (nM)]” value in assay [2] worked out at 814.

For the molecule `COc1ccc2c(c1)[C@]1(C[C@H]1c1cc3[nH]nc(Nc4nc(C)ncc4OC)c3cc1F)C(=O)N2` [Example 144, (1R,2R)-2-{5-fluoro-3-[(5-methoxy-2-methylpyrimidin-4-yl)amino]-1H-indazol-6-yl}-5′-methoxyspiro[cyclopropane-1,3′-indol]-2′(1′H)-one], in assay [1], the “[Aurora B IC50 (nM)]/[PLK4 IC50 (nM)]” value was 61.4367. The results for the concentration for half-maximal inhibition (IC50) at human recombinant PLK4 and in the assay on CHP-134 cells were 1.41 nM and 750 nM, respectively. The “[Aurora A IC50 (nM)]/[PLK4 IC50 (nM)]” value in assay [2] was 852.7955.

On to `COc1ccc2c(c1)[C@]1(C[C@H]1c1ccc3c(Nc4cc(C)nnc4OC)n[nH]c3c1)C(=O)N2` [Example 145, (1R,2S)-5′-methoxy-2-{3-[(3-methoxy-6-methylpyridazin-4-yl)amino]-1H-indazol-6-yl}spiro[cyclopropane-1,3′-indol]-2′(1′H)-one], for which the “[Aurora B IC50 (nM)]/[PLK4 IC50 (nM)]” value in assay [1] is 280.8043. For the same molecule, the IC50 on human recombinant PLK4 was 5.82 nM; in the assay with CHP-134 cells it was 2920 nM. For the same molecule, the “[Aurora A IC50 (nM)]/[PLK4 IC50 (nM)]” value in assay [2] stood at 1001.5467.

As for `COc1ccc2c(c1)[C@]1(C[C@H]1c1ccc3c(Nc4nc(C)ncc4OCC4CC4)n[nH]c3c1)C(=O)N2` [Example 146, (1R,2S)-2-(3-{[5-(cyclopropylmethoxy)-2-methylpyrimidin-4-yl]amino}-1H-indazol-6-yl)-5′-methoxyspiro[cyclopropane-1,3′-indol]-2′(1′H)-one], in assay [1], the “[Aurora B IC50 (nM)]/[PLK4 IC50 (nM)]” value amounted to 745.8082. Besides, the IC50 on human recombinant PLK4 was determined as 1.49 nM; in the assay with CHP-134 cells, 655 nM. Further, the “[Aurora A IC50 (nM)]/[PLK4 IC50 (nM)]” value in assay [2] was 3512.4078.

On to `COc1ccc2c(c1)[C@]1(C[C@H]1c1ccc3c(Nc4nc(C)ncc4OCC(F)F)n[nH]c3c1)C(=O)N2` [Example 147, (1R,2S)-2-(3-{[5-(2,2-difluoroethoxy)-2-methylpyrimidin-4-yl]amino}-1H-indazol-6-yl)-5′-methoxyspiro[cyclopropane-1,3′-indol]-2′(1′H)-one], for which the “[Aurora B IC50 (nM)]/[PLK4 IC50 (nM)]” value in assay [1] was 483.0689. Also, the IC50 at human recombinant PLK4 was determined as 4.22 nM; in the assay with CHP-134 cells, 1300 nM. Also, the “[Aurora A IC50 (nM)]/[PLK4 IC50 (nM)]” value in assay [2] came out at 2292.2093.

`COc1ccc2c(c1)[C@]1(C[C@H]1c1ccc3c(Nc4cc(C)ccc4OC)n[nH]c3c1)C(=O)N2` [Example 148, (1R,2S)-5′-methoxy-2-[3-(2-methoxy-5-methylanilino)-1H-indazol-6-yl]spiro[cyclopropane-1,3′-indol]-2′(1′H)-one]: the “[Aurora B IC50 (nM)]/[PLK4 IC50 (nM)]” value in assay [1] was determined as 338.8646. Also, the IC50 is 6.87 nM on human recombinant PLK4 and 3570 nM in the assay with CHP-134 cells. Besides, in assay [2], the “[Aurora A IC50 (nM)]/[PLK4 IC50 (nM)]” value came out at 397.3799.

As to `COc1ccc2c(c1)[C@]1(C[C@H]1c1ccc3c(Nc4nc(C)ncc4OCC(F)(F)F)n[nH]c3c1)C(=O)N2` [Example 149, (1R,2S)-5′-methoxy-2-(3-{[2-methyl-5-(2,2,2-trifluoroethoxy)pyrimidin-4-yl]amino}-1H-indazol-6-yl)spiro[cyclopropane-1,3′-indol]-2′(1′H)-one], the “[Aurora B IC50 (nM)]/[PLK4 IC50 (nM)]” value in assay [1] was found to be 879.4799. The IC50 on human recombinant PLK4 was determined as 3.15 nM; with CHP-134 cells, 844 nM. The “[Aurora A IC50 (nM)]/[PLK4 IC50 (nM)]” value in assay [2] was found to be 3193.7837.

`COc1ccc2c(c1)[C@]1(C[C@H]1c1ccc3c(Nc4ccc(C)nc4OC)n[nH]c3c1)C(=O)N2` [Example 150, (1R,2S)-5′-methoxy-2-{3-[(2-methoxy-6-methylpyridin-3-yl)amino]-1H-indazol-6-yl}spiro[cyclopropane-1,3′-indol]-2′(1′H)-one]: the “[Aurora B IC50 (nM)]/[PLK4 IC50 (nM)]” value in assay [1] was 366.7569. In addition, the IC50 turned out to be 8.13 nM on human recombinant PLK4 and 3160 nM in the assay on CHP-134 cells. For the same molecule, the “[Aurora A IC50 (nM)]/[PLK4 IC50 (nM)]” value in assay [2] came out at 720.7185.

As for `COc1ccc2c(c1)[C@]1(C[C@H]1c1ccc3c(Nc4nc(C)nc5c4OCC5)n[nH]c3c1)C(=O)N2` [Example 153, (1R,2S)-5′-methoxy-2-{3-[(2-methyl-6,7-dihydrofuro[3,2-d]pyrimidin-4-yl)amino]-1H-indazol-6-yl}spiro[cyclopropane-1,3′-indol]-2′(1′H)-one], in assay [1], the “[Aurora B IC50 (nM)]/[PLK4 IC50 (nM)]” value is listed as 123.6097. Also, the IC50 was determined as 1.91 nM at human recombinant PLK4 and 876 nM in the assay with CHP-134 cells. In addition, the “[Aurora A IC50 (nM)]/[PLK4 IC50 (nM)]” value in assay [2] amounted to 1254.4596.

As to `COc1ccc2c(c1)[C@]1(C[C@H]1c1ccc3c(Nc4nc(C5CCOCC5)ncc4OC)n[nH]c3c1)C(=O)N2` [Example 154, (1R,2S)-5′-methoxy-2-(3-{[5-methoxy-2-(oxan-4-yl)pyrimidin-4-yl]amino}-1H-indazol-6-yl)spiro[cyclopropane-1,3′-indol]-2′(1′H)-one], in assay [1], the “[Aurora B IC50 (nM)]/[PLK4 IC50 (nM)]” value was 655.2254. Besides, the concentration for half-maximal inhibition (IC50) at human recombinant PLK4 worked out at 0.976 nM; in the assay on CHP-134 cells, 260 nM. Further, the “[Aurora A IC50 (nM)]/[PLK4 IC50 (nM)]” value in assay [2] is reported as 1373.9754.

With `COc1ccc2c(c1)[C@]1(C[C@H]1c1ccc3c(Nc4nc(SC)ncc4OC)n[nH]c3c1)C(=O)N2` [Example 155, (1R,2S)-5′-methoxy-2-(3-{[5-methoxy-2-(methylsulfanyl)pyrimidin-4-yl]amino}-1H-indazol-6-yl)spiro[cyclopropane-1,3′-indol]-2′(1′H)-one], the “[Aurora B IC50 (nM)]/[PLK4 IC50 (nM)]” value in assay [1] was 68.0773. Further, the IC50 at human recombinant PLK4 came to 1.03 nM; with CHP-134 cells it was 192 nM. In addition, the “[Aurora A IC50 (nM)]/[PLK4 IC50 (nM)]” value in assay [2] turned out to be 305.4106.

`COc1ccc2c(c1)[C@]1(C[C@H]1c1ccc3c(Nc4nc(N5CCC5)ncc4OC)n[nH]c3c1)C(=O)N2` [Example 157, (1R,2S)-2-(3-{[2-(azetidin-1-yl)-5-methoxypyrimidin-4-yl]amino}-1H-indazol-6-yl)-5′-methoxyspiro[cyclopropane-1,3′-indol]-2′(1′H)-one]: the “[Aurora B IC50 (nM)]/[PLK4 IC50 (nM)]” value in assay [1] worked out at 303.9548. In addition, the IC50 at human recombinant PLK4 is 1.95 nM; with CHP-134 cells, 288 nM. In assay [2], the “[Aurora A IC50 (nM)]/[PLK4 IC50 (nM)]” value stood at 510.6317.

`COc1ccc2c(c1)[C@]1(C[C@H]1c1ccc3c(Nc4nc(C)nc5c4CCC5)n[nH]c3c1)C(=O)N2` [Example 159, (1R,2S)-5′-methoxy-2-{3-[(2-methyl-6,7-dihydro-5H-cyclopenta[d]pyrimidin-4-yl)amino]-1H-indazol-6-yl}spiro[cyclopropane-1,3′-indol]-2′(1′H)-one]: the “[Aurora B IC50 (nM)]/[PLK4 IC50 (nM)]” value in assay [1] worked out at 58.0530. Moreover, the IC50 at human recombinant PLK4 is 1.96 nM; in the assay with CHP-134 cells, 1300 nM. For the same molecule, the “[Aurora A IC50 (nM)]/[PLK4 IC50 (nM)]” value in assay [2] turned out to be 309.7350.

With `CCc1ncc(OC)c(Nc2n[nH]c3cc([C@@H]4C[C@@]45C(=O)Nc4ccc(OC)cc45)ccc23)n1` [Example 160, (1R,2S)-2-{3-[(2-ethyl-5-methoxypyrimidin-4-yl)amino]-1H-indazol-6-yl}-5′-methoxyspiro[cyclopropane-1,3′-indol]-2′(1′H)-one], the “[Aurora B IC50 (nM)]/[PLK4 IC50 (nM)]” value in assay [1] was found to be 149.5859. Besides, the values for the IC50 at human recombinant PLK4 and in the assay with CHP-134 cells were 1.93 nM and 310 nM, respectively. The “[Aurora A IC50 (nM)]/[PLK4 IC50 (nM)]” value in assay [2] is given as 545.5487.
